Results: EP0103895A2, “Novel hydroxylamine derivatives, production and use thereof” (MEIJI SEIKA KABUSHIKI KAISHA, priority 1982, dated 1984)
Where “and” joins values, the source holds several entries; their conditions need not be identical. Equal values may be shown once. Read-outs that look alike come from different tables or passages of the source.

Assays:
[1] = tested on: swine Oesophagostomum (Oesophagostomum dentatum); assay: Test of anthelmintic effect against swine Oesophagostomum in naturally infected pigs, E.P.G. on 7th day (Test Examples A8, B8, C8, D8); assay type: in vivo; settings: for anthelmintic effect: one administration of 20 mg/Kg
Protocol: Six pigs infected with swine Oesophagostomum (naturally infected pigs) were employed by grouping them into groups each of two pigs.
As a control, only gelatin capsules were administered orally to the two pigs.
(§1) Before administration and on the 7th day after administration, fecal matter testing was conducted to calculate the E.P.G., and the anthelmintic effect was judged by the changing of the E.P.G. to negative.

[2] = tested on: fowl roundworm (As. galli); assay: Anthelmintic test in chickens artificially infected with fowl roundworm, compound added to feed, E.P.G. and worm count up to 21st day (Test Examples A2, B2, C2, D2); assay type: in vivo, Ascaridia galli
[3] = tested on: Liver fluke; Fasciola hepatica (F. hepatica); assay: Test of anthelmintic effect against rat infected experimentally with liver fluke (Test Examples A11, B11, C11, D11); assay type: in vivo; set-up: key to Presence or absence of fluke egg in fecal matter On 21st day after the last administration: +: indicates detection of fluke egg; -: indicates no detection; settings: for anthelmintic effect: five administrations in a dose of 50 mg/Kg each
Source text: Twenty-eight (28) rats were employed in fourteen groups each of two rats, each rat being infected with 5 metacercariae of Liver fluke; Fasciola he^patica (F.. hepatica) and confirmed to have worm eggs on the 75th day after infection according to fecal matter testing.
Judgement of the effect was made by the presence or absence of the worm gees in the fecal matter on the 21st day after the last administration and by examination according to autopsis as to whether the worm bodies were dead or alive in the liver.
The same as that in Test Example All, but eight (8) rats were employed by grouping them into groups each of two rats, each rat being infected with 5 metacercariae of liver fluke and confirmed to have fluke eggs on the 75th day after infection according to fecal matter testing.
The compounds provided for the tests were Compound Nos. Bl, B8 and B19.
The same as that in Test Example All, but six (6) rats were employed by grouping them into groups each of two rats, each rat being infected with 5 metacercariae of Fasciola hepatica and confirmed to have worm eggs on the 75th day after infection according to fecal matter testing.
The compounds provided for the tests were Compound Nos. C2 and C6.
The same as that in Test Example All, but the compounds provided for tests were Compound Nos. D14, D15 and D16.

[4] = tested on: canine filaria; Dirofilaria immitis; assay: Test of anthelmintic effect against canine filaria in naturally infected dogs, subcutaneous injection, microfilaria in blood and adult filaria at autopsy (Test Examples A10, B10, C10, D10); assay type: in vivo; settings: for inhibition in vivo at 30 mg/kg / inhibition in vivo at 20 mg/kg: Dirofilaria immitis, sc, 240 h
Protocol: Eight dogs infected with canine filaria; Diro- filaria immitis (naturally infected dogs) were employed in groups each of two dogs.
The compounds provided for tests were Compound Nos. Al, A3 and A12. 20 mg of each was administered by subcutaneous injection per Kg of body weight to each of the two dogs as a suspension in 1% "Tween 80" solution once per day for three days. As control, 3 ml of the 1% "Tween 80" solution was subcutaneously injected into two dogs once per day for three days.
Before administration and on the 10th day after administration, 20 µl of earlobe blood of each dog was sampled and examined to determine the change in microfilaria (mf) according to the concentrated smear color method, and judgement on the effect on microfilaria (mf) was made. Judgement relating to adult filaria was made on the 10th day after the last administration by killing the dogs and carrying out autopsis.
30 mg of each compound was administered by subcutaneous injection per Kg of body weight to each of the two dogs as a suspension in 1% "Tween 80" solution once per day for three days. As control, 3 ml of the 1% "Tween 80" solution was subcutaneously injected into two dogs once per day for three days.
30 mg of each compound was administered by subcutaneous injection per Kg of body weight to each of two dogs as a suspension in 1% "Tween 80" solution once per day for three days. As control, 3 ml of the 1% "Tween 80" solution was subcutaneously injected to two dogs once per day for three days.
20 mg of each compound was administered by subcutaneous injection per kg of body weight once per day for three days to each of two dogs. These compounds were administered as a suspension in 1% "Tween 80" in the case of Compound No.Dl3 and as solutions dissolved in distilled water for injection in the case of Compounds Nos. D10 and D16, respectively. As control, 3 ml of the 1% "Tween 80" solution was subcutaneously injected into two dogs once per day for three days.

[5] = tested on: fowl roundworm (Ascaridia galli); assay: Anthelmintic test in chickens artificially infected with fowl roundworm, single oral dose in gelatin capsule, worm bodies counted within 48 hours (Test Examples A1, B1, C1, D1); assay type: in vivo; settings: Ascaridia galli, po, 48 h, chicken, chickens No.1-3, read-out: Anthelmintic effect after 48 hours; for inhibition in vivo at 30 mg/kg: 30 mg/Kg oral in gelatin capsule
Outline: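 Anthelmintic percentage derived from counts of worms passed within 48 h plus worms left in the intestine after killing at 48 h. Infection confirmed by fecal examination in three-bird groups; compound given orally once in gelatin capsules at 10/20 (A1, B1), 30/50 (C1) or 15/30 (D1) mg/kg.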

[6] = tested on: Diphyllobothrium erinacei; assay: Test of anthelmintic effect against Diphyllobothrium erinacei (tapeworm) in experimentally infected cats (Test Examples A5, B5, C5, D5); settings: for anthelmintic effect: 5 continuous administrations of 50 mg/Kg
[7] = tested on: canine strongyloides (Strongyloides stercoralis); assay: Anthelmintic test against canine strongyloides in naturally infected dogs, E.P.G. on 7th day (Test Examples A4, B4, C4, D4); assay type: in vivo
Protocol: Three dogs infected with canine strongyloides (naturally infected dogs) were employed by grouping them into a group of two and a group of one.
As control, only a gelatin capsule was administered orally to the one dog.
as §1
(§2) As control, only gelatin capsules were administered orally to the one dog.
as §2

[8] = Ascaridia galli, feed or water, 504 h, chicken, 25 ppm in feed, read-out: Anthelmintic effect
[9] = Ascaridia galli, feed or water, 504 h, chicken, 50 ppm in feed, read-out: Anthelmintic effect
[10] = dogs, administration of 20 mg/Kg repeated three times, given as about 50% or more, read-out: anthelmintic effect against adult filaria
[11] = dogs, administration of 20 mg/Kg repeated three times
[12] = dogs, 20 mg/Kg x 3 subcutaneously, autopsy on 10th day after the last administration, one value per dog, 20 mg/kg

C=CCON(CC=C)C(=O)CC [Compound C2]
Change of E.P.G. 7th day ([1]; pig, Oesophagostomum dentatum, 20 mg/Kg, one administration): 0 | Change of E.P.G. Before administration ([1]; pig, Oesophagostomum dentatum, before 20 mg/Kg (baseline)): 1,700 and 1,200 | anthelmintic effect ([1]; pigs): marked anthelmintic effect | inhibition in vivo at 25 ppm [2, 8]: 100% | inhibition in vivo at 50 ppm [2, 9]: 100% | Change of E.P.G. 21st day ([2]; chicken, 25 ppm in feed): 0 | Change of E.P.G. 21st day ([2]; chicken, 50 ppm in feed): 0 | Condition of fluke body ([3]; rat, 50 mg/Kg x 5): dead | Presence or absence of fluke egg in fecal matter On 21st day after the last administration ([3]; rat, 50 mg/Kg x 5): - | anthelmintic effect ([3]; rats): marked antihelmintic effect | inhibition in vivo at 30 mg/kg ([4]; dog, 30 mg/Kg x 3, subcutaneous injection, read-out: Effect on adult filaria: Percent of worms killed): 62% | inhibition in vivo at 30 mg/kg ([4]; dogs, administration of 30 mg/Kg repeated three times, given as about 50% or more, read-out: anthelmintic effect against adult filaria): ≥ 50% | Number of microfilaria/20 µl On 10th day after the last administration ([4]; dog, 30 mg/Kg x 3, subcutaneous injection, suspension in 1% Tween 80): 0 /20 µl | Effect on adult filaria: Number of worms killed/ Total parasite ([4]; dog, 30 mg/Kg x 3, subcutaneous injection, 30 mg/kg): 5/8 and 8/13 | anthelmintic effect against microfilaria (mf) ([4]; dogs, administration of 30 mg/Kg repeated three times): marked anthelmintic effect | inhibition in vivo at 30 mg/kg [5]: 100% | inhibition in vivo at 50 mg/kg ([5]; 50 mg/Kg oral in gelatin capsule): 100% | Number of worm bodies remaining in enteron ([6]; cat, 50 mg/Kg x 5, oral in gelatin capsule): 0 | Worm egg detection on 10th day after administration ([6]; cat, 50 mg/Kg x 5, oral in gelatin capsule, once per day for 5 days): - | anthelmintic effect ([6]; cats): marked anthelmintic effects

C#CCNOC.Cl [Compound D16, N-propargyl-O-methylhydroxylamine hydrochloride]
Change of E.P.G. 7th day ([7]; dog, Strongyloides stercoralis, 10 mg/Kg, one administration): 0 | Change of E.P.G. Before administration ([7]; dog, Strongyloides stercoralis, before 10 mg/Kg (baseline), hydrochloride): 2,300 and 1,800 | anthelmintic effect ([7]; dogs, one administration of 10 mg/Kg): marked anthelmintic effect | inhibition in vivo at 25 ppm [2, 8]: 100% | inhibition in vivo at 50 ppm [2, 9]: 100% | Condition of fluke bodies ([3]; rat, 50 mg/Kg x 5): dead | Presence or absence of fluke egg in fecal matter On 21st day after the last administration ([3]; rat, 50 mg/Kg x 5): - | anthelmintic effect ([3]; rats): marked anthelmintic effect | inhibition in vivo at 20 mg/kg ([4]; dog, 20 mg/Kg x 3, subcutaneous injection, read-out: Effect on adult filaria: Percent of worms killed): 55% | inhibition in vivo at 20 mg/kg [4, 10]: ≥ 50% | Number of microfilaria/20µl On 10th day after the administration ([4]; dog, 20 mg/Kg x 3, subcutaneous injection): 0 /20µl | Effect on adult filaria: Number of worms killed/ Total parasite ([4]; dog, 20 mg/Kg x 3, subcutaneous injection, hydrochloride, 20 mg/kg): 16/29 and 23/37 | Number of microfilaria/20µl Before administration ([4]; dog, before 20 mg/Kg x 3 subcutaneous injection (baseline), hydrochloride): 18 /20µl and 31 /20µl | anthelmintic effect against microfilaria (mf) [4, 11]: marked anthelmintic effect | inhibition in vivo at 15 mg/kg ([5]; 15 mg/Kg oral in gelatin capsule): 100% | inhibition in vivo at 30 mg/kg [5]: 100% | Number of worms remaining in enteron ([6]; cat, 50 mg/Kg x 5): 0 | anthelmintic effect ([6]; cats): marked anthelmintic effects

C#CCN(OCC=C)C(=O)c1ccc(F)cc1 [Compound A12, N-propargyl-N-(p-fluorobenzoyl)-O-allylhydroxylamine]
Change of E.P.G. Before administration ([1]; pigs, 20 mg/Kg orally once, baseline, one value per pig, 20 mg/kg): 2,100 E.P.G. and 1,500 E.P.G. | Change of E.P.G. 7th day ([1]; pigs, 20 mg/Kg orally once, one value per pig): 0 E.P.G. | anthelmintic effect ([1]; pigs): marked anthelmintic effect | inhibition in vivo at 10 ppm ([2]; Ascaridia galli, po, 504 h, chickens, 10 ppm added to feed, worm count on 21st day, one value per chicken, read-out: Anthelmintic effect): 80 to 90% | inhibition in vivo at 50 ppm ([2]; Ascaridia galli, po, 504 h, chickens, 50 ppm added to feed, worm count on 21st day, one value per chicken, read-out: Anthelmintic effect): 100% | Condition of fluke body ([3]; rats, 50 mg/Kg x 5 orally, autopsy, liver, "Denatured" = fluke body is alive but a part of fluke body has changed, one value per rat): dead | Presence or absence of fluke egg in fecal matter On 21st day after the last administration ([3]; rats, 50 mg/Kg x 5 orally, one value per rat): - | inhibition in vivo at 20 mg/kg [4, 10]: ≥ 50% | Effect on adult filaria: Number of worms killed/Total parasites [4, 12]: 13/21 and 15/26 | Effect on adult filaria: Percent of worms killed [4, 12]: 62% and 58% | Number of microfilaria/20 µl On 10th day after the last administration ([4]; dogs, 20 mg/Kg x 3 subcutaneously, earlobe blood, one value per dog): 0 /20 µl | anthelmintic effect against microfilaria (mf) [4, 11]: marked anthelmintic effect | Number of worm bodies remaining in enteron ([6]; cats infected with 5 plerocercoids, 50 mg/Kg x 5 times orally, autopsy ten days after administration, one value per cat): 0 | Worm egg detection on 10th day after administration ([6]; cats, 50 mg/Kg x 5 times orally, one value per cat (Table A7)): - | anthelmintic effect ([6]; cats): marked anthelmintic effects
